For six compounds, refractive index and mass density results are on record in the NIST ThermoML archive (doi:10.1016/j.jct.2012.06.028).

Numbers after ± are expanded uncertainties.

A short description of data set [1]: refractive index (Na D-line) (dimensionless). The following applies: 298.15 K; 101.33 kPa; Liquid; Standard Abbe refractometry.
The conditions of data set [2]: 298.15 K; 101.33 kPa; Liquid; Vibrating tube method.

Regarding `CCCC[n+]1cccc(C)c1.O=S(=O)([N-]S(=O)(=O)C(F)(F)F)C(F)(F)F`, in data set [1], the refractive index amounted to 1.44595 ± 0.0007. Further, the mass density in data set [2] was determined as 1414.76 ± 0.6 kg/m3.
On to `CCCC[n+]1ccn(C)c1.O=S(=O)([N-]S(=O)(=O)C(F)(F)F)C(F)(F)F`, for which the refractive index in data set [1] worked out at 1.42672 ± 0.0007. Moreover, the mass density in data set [2] stood at 1436.1 ± 0.62 kg/m3.
Turning to `CCn1cc[n+](C)c1.O=S(=O)([N-]S(=O)(=O)C(F)(F)F)C(F)(F)F`, in data set [1], the refractive index was 1.42307 ± 0.0007. Also, in data set [2], the mass density was found to be 1518.74 ± 0.7 kg/m3.
The like results for `CCCC[n+]1cccc(C)c1.O=S(=O)([O-])C(F)(F)F` [1-butyl-3-methylpyridinium trifluoromethanesulfonate] were, in that order, 1.46138 ± 0.0007 and 1279.77 ± 0.47 kg/m3.
Regarding `CCO` [ethanol], in data set [1], the refractive index is 1.35936 ± 0.00068. In addition, the mass density in data set [2] is reported as 785.44 ± 0.13 kg/m3.
As for `CCCCCC` [hexane], the refractive index in data set [1] is reported as 1.37241 ± 0.0007. Moreover, the mass density in data set [2] turned out to be 655.2 ± 0.26 kg/m3.

Usually refractive index stands for a measure of how strongly the sample bends light. The mass density is the mass of a sample divided by its volume.
